Measurements from patent US20250114329A1, “METHODS FOR TREATING AML-MRC AND MDS” (Ascentage Pharma (Suzhou) Co., LTD, priority 2022, published 2025).

Key:
[1] = tested on: relapsed/refractory AML, CMML or MDS (AML-MRC subject); assay: Phase Ib/II study of Compound C alone or in combination with azacitidine (Example 1); assay type: in vivo, human; conditions: Compound C alone, 150 mg
Excerpt: This was a two part study in patients with relapsed/refractory (R/R) acute myeloid leukemia (AML), Chronic Myelomonocytic Leukemia (CMML) and relapsed/progressed higher-risk myelodysplastic syndrome (MDS), that was designed to evaluate the safety and tolerability of Compound C as a single agent in Part I, followed by a combination of Compound C plus 5-azacitidine in Part II. Part I: Dose escalation of Compound C will use standard 3+3 design. Compound C will be administered orally once daily (QD) on Day 1 to 5 every 28-day cycle. The starting target dose is 100 mg (dose level; DL1) and will be increased in subsequent cohorts to 150 mg (DL2), 200 mg (DL3) and 250 mg (DL4), accordingly. Part II: Compound C will be co-administered with 5-azacitidine SC or IV at 75 mg/m^2 once daily on 7 out of 9 days from Day 1 to Day 9 every 28-day cycle.

H929 cells = assay: Western Blotting assay; assay type: cell-based, human; conditions: 24 hrs or 48 hrs
Method: After treatments with single or combined test articles, cultured cells were harvested and washed with ice-cold PBS. Cell pellets were lysed in RIPA buffer containing 1% PMSF, 1% phosphatase inhibitor, and 1% protease inhibitors. Protein concentrations were determined using the BCA Protein Assay Kit. Whole tumor lysates ([…]) were separated on an 8-12% SDS-PAGE. The separated proteins were transferred to a PVDF membrane. The PVDF membrane was blocked with 1-3% BSA buffer for 30 min to 1 hour at room temperature. Incubate membrane with diluted primary antibody in 1×TBST containing 1-3% BSA at 4° C., with gentle agitation overnight. Wash the membrane with 1×TBST three times. Incubate membrane with HRP-conjugated secondary antibody with gentle agitation for 1 hour at room temperature. Wash the membrane with 1×TBST three times. The signals were visualized with Super ECL Detection Reagent and detected by chemiluminescence imaging system.

[2] = tested on: R/R AML with myelodysplasia-related changes; assay: Phase Ib/II study of Compound C alone or in combination with 5-azacitidine or cytarabine (Example 2); assay type: in vivo, human; conditions: Compound C alone, person, R/R AML-MRC
Excerpt: This was a three parts study in patients with relapsed/refractory acute myeloid leukemia (AML), relapsed or progressed high or very high risk myelodysplastic syndrome (MDS) that was designed to evaluate the safety and tolerability of Compound C as a single agent in Part I, followed by a combination dose escalation of Compound C plus either 5-azacitidine or cytarabine in Part II and a dose expansion of the combination treatment in part III. Part I: Dose escalation of Compound C will use standard 3+3 design. Compound C will be administered orally once daily (QD) on Day 1 to 7 every 28-day cycle. The starting target dose is 100 mg (dose level; DL1) and will be increased in subsequent cohorts to 150 mg (DL2), 200 mg (DL3) and 250 mg (DL4), accordingly. Part II: Dose escalation of Compound C combination with either 5-azacitidine or cytarabine, which includes two Arms, Arm A and Arm B. Arm A will enroll patients with relapsed or progressed high or very high risk MDS and Arm B will enroll patients with R/R AML. In this part, 5-azacitidine and cytarabine will be administered with fixed dose. The starting dose of Compound C was 100 mg and will be increased subsequently to 150 mg and 200 mg. In Arm A, Compound C will be co-administered with 5-azacitidine subcutaneously injected at 75 mg/m^2 once daily on Day 1 to 7 every 28-day cycle. In Arm B, Compound C will be co-administered once daily on Day 1 to 7 every 28-day cycle with cytarabine intravenously administered at 1 g/m^2 once daily on Day 3 to 7 every 28-day cycle.

CCN1[C@@H](C(=O)NC23CCC(C(=O)O)(CC2)CC3)[C@H](c2cccc(Cl)c2F)[C@]2(C(=O)Nc3cc(Cl)ccc32)C12CCCCC2 [Compound C, alrizomadlin]
End of cycle 1 disease assessment ([1]; person, AML-MRC (TP53w, FLT3-, IDH1/2-), prior venetoclax + decitabine): CRi
Blast at C2D1 ([1]; reduced from 43%, Day 1 of cycle 2): to 13%
Blast at C3D1 ([1]; reduced from 43%, Day 1 of cycle 3): C2D1, to 3%
P53, MDM2 and P21 expression (H929 cells): upregulated
Response ([2]; 100 mg, prior D-CAG, C1D62): CRi
Response ([2]; 200 mg, prior D-CAG, C3D21): CRi
Response ([2]; 250 mg, several prior regimens): MLFS
